Our source for the Papp values is ChEMBL document CHEMBL1156896, “Synthesis and structure-activity relationships of a series of 3-aryl-4-isoxazolecarboxamides as a new class of TGR5 agonists” (Bioorg Med Chem Lett, 2010).

One data set in a line: in vitro. To be noted: dog, MDCK.
Data set [1] in a line: Permeability in artificial membrane assay. To be noted: PAMPA; read-out: permeability. The class given is ADME, cell membranes. In general terms: The PAMPA barrier holds no transporters, so it reflects passive diffusion.

The structures appear in SMILES notation.

For `CCN(C(=O)c1c(-c2ccccc2Cl)noc1C)c1cccc(Cl)c1`, the values for the Papp (in “in vitro”; in data set [1]) were 44.8 ×10⁻⁶ cm/s and 31 ×10⁻⁶ cm/s, respectively.
